Experimental data taken from patent US9422277B2, “Tricyclic substituted thiadiazine dioxide compounds as BACE inhibitors, compositions and their use” (Merck Sharp & Dohme Corp., priority 2012, dated 2016).

Experiments:
[1] = target: soluble human BACE1 catalytic domain (Homo sapiens (Human), UniProt P56817); test: BACE1 HTRF FRET Assay; assay type: biochemical; conditions: Ki calculated from IC50 using the Cheng-Prusoff equation
From the text: A homogeneous time-resolved FRET assay can be used to determine IC50 values for inhibitors of the soluble human BACE1 catalytic domain. This assay monitors the increase of 620 nm fluorescence that resulted from BACE1 cleavage of an APPswedish APP^swe mutant peptide FRET substrate (QSY7-[…]-Europium-amide). This substrate contains an N-terminal QSY7 moiety that serves as a quencher of the C-terminal Europium fluorophore (620 nm Em). In the absence of enzyme activity, 620 nm fluorescence is low in the assay and increased linearly over 3 hours in the presence of uninhibited BACE1 enzyme Inhibition of BACE1 cleavage of the QSY7-APP^swe-Eu substrate by inhibitors is manifested as a suppression of 620 nm fluorescence.
Reactions are initiated by addition of 10 μl of 600 nM QSY7-APP^swe-Eu substrate (200 nM final) to give a final reaction volume of 30 μl in a 384 well Nunc HTRF plate. The reactions are incubated at 30° C. for 1.5 hours. The 620 nm fluorescence is then read on a Rubystar HTRF plate reader (BMG Labtechnologies) using a 50 millisecond delay followed by a 400 millisecond acquisition time window Inhibitor IC50 values are derived from non-linear regression analysis of concentration response curves.

[2] = target: purified human autoBACE-2 (Homo sapiens (Human), UniProt Q9Y5Z0); test: BACE-2 Assay (BACE-HTRF assay); assay type: biochemical; conditions: Ki calculated from IC50 using the Cheng-Prusoff equation; read-out: BACE2 Ki
Procedure: Inhibitor IC50s at purified human autoBACE-2 are determined in a time-resolved endpoint proteolysis assay that measures hydrolysis of the QSY7-[…]-Eu-amide FRET peptide substrate (BACE-HTRF assay). BACE-mediated hydrolysis of this peptide results in an increase in relative fluorescence (RFU) at 620 nm after excitation with 320 nm light Inhibitor compounds, prepared at 3× the desired final concentration in 1×BACE assay buffer (20 mM sodium acetate pH 5.0, 10% glycerol, 0.1% Brij-35) supplemented with 7.5% DMSO are pre-incubated with an equal volume of autoBACE-2 enzyme diluted in 1×BACE assay buffer (final enzyme concentration 1 nM) in black 384-well NUNC plates for 30 minutes at 30° C. […] DMSO is present at 5% final concentration in the assay. Following laser excitation of sample wells at 320 nm, the fluorescence signal at 620 nm is collected for 400 ms following a 50 μs delay on a RUBYstar HTRF plate reader (BMG Labtechnologies). Raw RFU data is normalized to maximum (1.0 nM BACE/DMSO) and minimum (no enzyme/DMSO) RFU values. IC50s are determined by nonlinear regression analysis (sigmoidal dose response, variable slope) of percent inhibition data with minimum and maximum values set to 0 and 100 percent respectively. Similar IC50s are obtained when using raw RFU data. The Ki values are calculated from the IC50 using the Cheng-Prusoff equation.

Sequence of purified human autoBACE-2 (Q9Y5Z0 63-473 limits assumed): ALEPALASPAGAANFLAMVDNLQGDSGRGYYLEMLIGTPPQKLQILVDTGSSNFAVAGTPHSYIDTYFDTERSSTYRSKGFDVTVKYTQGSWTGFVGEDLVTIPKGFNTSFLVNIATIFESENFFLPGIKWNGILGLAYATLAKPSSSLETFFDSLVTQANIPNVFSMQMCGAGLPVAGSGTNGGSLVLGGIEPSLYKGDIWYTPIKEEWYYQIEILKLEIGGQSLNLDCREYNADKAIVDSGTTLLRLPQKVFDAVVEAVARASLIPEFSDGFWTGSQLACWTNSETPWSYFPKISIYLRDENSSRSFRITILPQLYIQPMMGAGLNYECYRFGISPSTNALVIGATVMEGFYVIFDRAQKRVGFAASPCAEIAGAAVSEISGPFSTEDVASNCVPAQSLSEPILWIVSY
Sequence of soluble human BACE1 catalytic domain (P56817 75-416): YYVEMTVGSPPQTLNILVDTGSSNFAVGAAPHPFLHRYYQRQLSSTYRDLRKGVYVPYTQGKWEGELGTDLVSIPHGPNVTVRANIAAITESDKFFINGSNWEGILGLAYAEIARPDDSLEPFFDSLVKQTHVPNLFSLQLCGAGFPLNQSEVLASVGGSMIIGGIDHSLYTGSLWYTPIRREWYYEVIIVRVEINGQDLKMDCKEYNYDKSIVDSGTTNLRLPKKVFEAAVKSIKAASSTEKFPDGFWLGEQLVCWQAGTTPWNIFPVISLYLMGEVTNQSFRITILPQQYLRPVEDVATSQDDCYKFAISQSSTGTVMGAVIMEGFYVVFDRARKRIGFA

Row | Structure (SMILES) | Ki [1] | Ki [2]
1 | CN1C(=N)N[C@](C)(c2sc(-c3cc(-c4ccccc4)on3)cc2Cl)CS1(=O)=O [Example 12] | 1170 nM | 364 nM
2 | CN1C(=N)N[C@](C)(c2sc(-c3nnc(-c4ccncn4)o3)cc2Cl)CS1(=O)=O [Example 43] | 822 nM | 305 nM
3 | CN1C(=N)N[C@](C)(c2sc(-c3nnc(-c4cnccn4)o3)cc2Cl)CS1(=O)=O [Example 27] | 683 nM | 284 nM
4 | CN1C(=N)N[C@](C)(c2sc(-c3nnc(-c4ccc(N5CCCC5=O)cc4)o3)cc2Cl)CS1(=O)=O [Example 69] | 1030 nM | 1070 nM
5 | CN1C(=N)N[C@](C)(c2sc(-c3nnc(-c4ccc(C5(C#N)COC5)cc4)o3)cc2Cl)CS1(=O)=O [Example 66] | 1360 nM | 1070 nM
6 | CN1C(=N)N[C@](C)(c2sc(-c3cc(-c4ccccc4)no3)cc2Cl)CS1(=O)=O [Example 14] | 943 nM | 144 nM
7 | CN1C(=N)N[C@](C)(c2cc(-c3nnc(-c4cscn4)o3)ccc2F)CS1(=O)=O [Example 51] | 8600 nM | 1540 nM
8 | CN1C(=N)N[C@](C)(c2cc(-c3cc(-c4ccccc4)on3)ccc2F)CS1(=O)=O [Example 13] | 910 nM | 207 nM
9 | CN1C(=N)N[C@](C)(c2sc(-c3nnc(-c4ccc5[nH]cnc5c4)o3)cc2Cl)CS1(=O)=O [Example 58] | 964 nM | 1300 nM
10 | CN1C(=N)N[C@](C)(c2sc(-c3nnc(-c4ncccn4)o3)cc2Cl)CS1(=O)=O [Example 36] | 778 nM | 104 nM
11 | CN1C(=N)N[C@](C)(c2cc(-c3nnc(-c4cocn4)o3)ccc2F)CS1(=O)=O [Example 54] | 7550 nM | 1690 nM
12 | CN1C(=N)N[C@](C)(c2sc(-c3nnc(-c4ccon4)o3)cc2Cl)CS1(=O)=O [Example 44] | 1340 nM | 156 nM
13 | CN1C(=N)N[C@](C)(c2sc(-c3nnc(-c4cscn4)o3)cc2Cl)CS1(=O)=O [Example 37] | 662 nM | 69.1 nM
14 | CN1C(=N)N[C@](C)(c2sc(-c3nnc(-c4ccn(C)n4)o3)cc2Cl)CS1(=O)=O [Example 46] | 1140 nM | 130 nM
15 | CN1C(=N)N[C@](C)(c2cc(-c3nnc(-c4nccs4)o3)ccc2F)CS1(=O)=O [Example 49] | 4000 nM | 490 nM
16 | CN1C(=N)N[C@](C)(c2sc3c(-c4cnc(-c5ccc(F)cc5)o4)cccc3c2F)CS1(=O)=O [Example 83] | 3180 nM | 3320 nM
17 | CN1C(=N)N[C@](C)(c2sc(-c3nnc(-c4cnn5ccccc45)o3)cc2Cl)CS1(=O)=O [Example 35] | 2370 nM | 450 nM
18 | CN1C(=N)N[C@](C)(c2cc(-c3nnc(-c4ccon4)o3)ccc2F)CS1(=O)=O [Example 55] | 4940 nM | 737 nM
19 | CN1C(=N)N[C@](C)(c2sc(-c3nnc(-c4cccc5ccnn45)o3)cc2Cl)CS1(=O)=O [Example 34] | 561 nM | 217 nM
20 | CN1C(=N)N[C@](C)(c2cc(-c3nnc(-c4cnco4)o3)ccc2F)CS1(=O)=O [Example 26] | 1240 nM | 802 nM
21 | CN1C(=N)N[C@](C)(c2sc(-c3nnc(-c4cocn4)o3)cc2Cl)CS1(=O)=O [Example 42] | 925 nM | 142 nM
22 | CN1C(=N)N[C@](C)(c2sc(-c3nnc(-c4ccc5c(c4)C(=O)CC5)o3)cc2Cl)CS1(=O)=O [Example 74] | 887 nM | 1990 nM
23 | CN1C(=N)N[C@](C)(c2sc(-c3nnc(-c4ccnn4C)o3)cc2Cl)CS1(=O)=O [Example 47] | 1520 nM | 712 nM
24 | CN1C(=N)N[C@](C)(c2cc(-c3nnc(-c4cncs4)o3)ccc2F)CS1(=O)=O [Example 50] | 9920 nM | 4220 nM
25 | CN1C(=N)N[C@](C)(c2cc(-c3cc(-c4ccccc4)on3)ccc2F)CS1(=O)=O [Example 15] | 326 nM | 52.6 nM

The remaining lines, values ahead:

Row | Ki [1] | Ki [2] | Structure (SMILES)
26 | 470 nM | 87.9 nM | CN1C(=N)N[C@](C)(c2sc(-c3ncc(-c4ccccn4)[nH]3)cc2Cl)CS1(=O)=O [Example 3]
27 | 2.8 nM | 10.9 nM | CN1C(=N)N[C@](C)(c2sc(-c3ccc(-c4nnco4)[nH]3)cc2Cl)CS1(=O)=O [Example 8]
28 | 34.6 nM | 44.9 nM | CN1C(=N)N[C@](C)(c2sc(-c3nnc(-c4ccc(C#N)cc4)o3)cc2Cl)CS1(=O)=O [Example 23]
29 | 112 nM | 14.8 nM | CN1C(=N)N[C@](C)(c2sc(-c3ncc(-c4ccccc4)[nH]3)cc2Cl)CS1(=O)=O [Example 2]
30 | 258 nM | 1280 nM | CN1C(=N)N[C@](C)(c2sc(-c3nnc(-c4ccc(-c5noc(C(F)(F)F)n5)cc4)o3)cc2Cl)CS1(=O)=O [Example 77]
31 | 555 nM | 58.4 nM | CN1C(=N)N[C@](C)(c2sc(-c3nnc(-c4ccccn4)o3)cc2Cl)CS1(=O)=O [Example 21]
32 | 118 nM | 81.3 nM | CN1C(=N)N[C@](C)(c2sc(-c3nnc(-c4ccc(F)c(F)c4)o3)cc2Cl)CS1(=O)=O [Example 59]
33 | 50.7 nM | 16.8 nM | CN1C(=N)N[C@](C)(c2sc(-c3nnc(-c4ccc(Cl)cc4F)o3)cc2Cl)CS1(=O)=O [Example 57]
34 | 407 nM | 226 nM | CN1C(=N)N[C@](C)(c2sc(-c3nnc(-c4cnn(C)c4)o3)cc2Cl)CS1(=O)=O [Example 45]
35 | 156 nM | 366 nM | CN1C(=N)N[C@](C)(c2sc(-c3nnc(-c4ccc(C(F)(F)F)c(F)c4)o3)cc2Cl)CS1(=O)=O [Example 65]
36 | 2.1 nM | 0.69 nM | CN1C(=N)N[C@](C)(c2sc(-c3ccc(-c4ccccc4)[nH]3)cc2Cl)CS1(=O)=O [Example 1]
37 | 265 nM | 27.9 nM | CN1C(=N)N[C@](C)(c2sc(-c3cnn(-c4ccccc4)c3)cc2Cl)CS1(=O)=O [Example 85]
38 | 138 nM | 671 nM | COC(=O)Cc1ccc(-c2nnc(-c3cc(Cl)c([C@]4(C)CS(=O)(=O)N(C)C(=N)N4)s3)o2)cc1 [Example 80]
39 | 255 nM | 124 nM | CN1C(=N)N[C@](C)(c2sc(-c3nnc(C4Cc5ccccc5C4)o3)cc2Cl)CS1(=O)=O [Example 38]
40 | 441 nM | 31.7 nM | CN1C(=N)N[C@](C)(c2sc(-c3nnc(-c4ncco4)o3)cc2Cl)CS1(=O)=O [Example 41]
41 | 87 nM | 35 nM | CC1CN=C(c2ccc(-c3cc(Cl)c([C@]4(C)CS(=O)(=O)N(C)C(=N)N4)s3)[nH]2)O1 (some centres unmarked) [Example 7]
42 | 108 nM | 243 nM | CN1C(=N)N[C@](C)(c2sc(-c3nnc(-c4ccc(-c5ccon5)cc4)o3)cc2Cl)CS1(=O)=O [Example 76]
43 | 171 nM | 336 nM | CN1C(=N)N[C@](C)(c2sc(-c3nnc(-c4ccc5scnc5c4)o3)cc2Cl)CS1(=O)=O [Example 73]
44 | 160 nM | 356 nM | CCCCCOc1ccc(-c2nnc(-c3cc(Cl)c([C@]4(C)CS(=O)(=O)N(C)C(=N)N4)s3)o2)cc1 [Example 64]
45 | 100 nM | 258 nM | CCCCOc1ccc(-c2nnc(-c3cc(Cl)c([C@]4(C)CS(=O)(=O)N(C)C(=N)N4)s3)o2)cc1 [Example 61]
46 | 87 nM | 11.3 nM | CN1C(=N)N[C@](C)(c2sc(-c3ccc(-c4nnc(C5CC5)o4)[nH]3)cc2Cl)CS1(=O)=O [Example 10]
47 | 56 nM | 143 nM | CN1C(=N)N[C@](C)(c2sc(-c3nnc(-c4ccc(OC(F)(F)F)cc4)o3)cc2Cl)CS1(=O)=O [Example 78]
48 | 164 nM | 303 nM | CN1C(=N)N[C@](C)(c2sc(-c3nnc(-c4ccc(C(F)(F)F)cn4)o3)cc2Cl)CS1(=O)=O [Example 75]
49 | 155 nM | 181 nM | CN1C(=N)N[C@](C)(c2sc(-c3nnc(-c4ccc(-n5cccn5)cc4)o3)cc2Cl)CS1(=O)=O [Example 71]
50 | 558 nM | 332 nM | CN1C(=N)N[C@](C)(c2sc(-c3nnc(-c4ccncc4)o3)cc2Cl)CS1(=O)=O [Example 28]
51 | 422 nM | 1150 nM | Cc1nc2cc(-c3nnc(-c4cc(Cl)c([C@]5(C)CS(=O)(=O)N(C)C(=N)N5)s4)o3)ccc2s1 [Example 72]
52 | 8.1 nM | 8.24 nM | Cc1nnc(-c2ccc(-c3cc(Cl)c([C@]4(C)CS(=O)(=O)N(C)C(=N)N4)s3)[nH]2)o1 [Example 9]
